Laboratory results published in patent US11479770B2, “Use of p38 inhibitors to reduce expression of DUX4” (Fulcrum Therapeutics, Inc., priority 2017, dated 2022).

Key:
Type in all cases: cell-based, human
[1] = system: active Caspase-3; experiment: Apoptosis by active Caspase-3 in FSHD myotubes; conditions: 1 μM; to level similar to healthy control line
Description: Briefly, cells were fixed in 4% paraformaldehyde and permeabilized in […] for 10 min at room temperature. Cells were permeabilized with PBST (1× PBS solution with 0.1% Triton X-100) before blocking with 10% Normal Donkey Serum or 3% BSA (NDS) in PBST. Cells were then incubated with appropriately diluted primary antibodies in PBST with 5% NDS for 1 hours at room temperature or 12 hours at 4° C., washed with PBST for 3 times at room temperature, and then incubated with desired secondary antibodies in TBST with 5% NDS and DAPI to counterstain the nuclei. DUX4 was detected by immunocytochemistry using the E5-5 antibody in differentiated FSHD myotubes. Activated Caspase-3 was detected using a commercially available antibody (https://www.cellsignal.com/products/primary-antibodies/cleaved-caspase-3-asp175-antibody/9661).
Apoptosis was measured by active Caspase-3 levels in FSHD myotubes in vitro as described in Materials and Methods. Apoptosis was detected in a sporadic manner in a subset of myotubes in culture as shown by the white circles and magnified region in FIG. 9A. Active Caspase-3 signal was quantified in FSHD myotubes that had been treated with FTX-1821 at different concentrations (FIG. 9B). […] No change in active Caspase-3 signal was observed following DMSO treatment. […]

[2] = system: MBD3L2 mRNA (DUX4 downstream gene); experiment: MBD3L2 mRNA expression (qPCR) in FSHD myotubes
Description: (§1) On day 0, the media was changed to differentiation media. Plates were removed from the incubator and the growth medium was aspirated, plates were washed once with PBS, 100 μL, for 96-wells and 1 mL for a 6-well plate, 100 μL, or 2 mL of differentiation medium was added per well, 96- or 6-well respectively. Antisense oligonucleotides or drug were added at the desired concentration, and the plates were put back in the incubator and incubated for 3-4 days.
(§2) Cells were removed from the incubator and media aspirated. Cells were quickly lysed following one of the following protocols: for lysis in 96-well plates, direct lysis and one-step RT-Preamp qPCR was performed according to the protocol described below. For each 96-well, a mix containing: 19.5 μL Roche Realtime Ready lysis buffer, 0.25 μL RNAse inhibitor, 0.25 μL DNAseI (from Thermo not the included one in the kit) was prepared. 20 μL of the mix was added to each well, mixed 5 times, and incubated 5 minutes at RT or alternatively shaken vigorously for 15 minutes. Lysis was observed under the microscope. Samples were frozen −80° C. at least for 15 minutes.
1-step RT-Preamplification was used for detection of DUX4 downstream genes, i.e., MBD3L2, ZSCAN4, LEUTX, TRIM43, KHDC1L, and POL2RA-VIC was used as endogenous control. Per 10 μL reaction, the reaction mix included: 2.25 μL of RNA (1:10 dilution lysate), 5 μL of Taqman Pre-Amp Master Mix (2×), 0.25 μL of RT enzyme mix (40×), 2.5 μL of Taqman probe set (0.2×)*. * For pooling the TaqMan Assays, equal volumes of each 20× TaqMan® Gene Expression Assay were used, and up to 100 assays were combined. For example, to pool 50 TaqMan assays, 10 μL of each assay were combined in a microcentrifuge tube. The pooled TaqMan assays were diluted using 1× TE buffer so that each assay was at a final concentration of 0.2×. For the above example, 500 μL of 1× TE buffer was added to the pooled TaqMan assays for a total final volume of 1 mL. The QuantStudio7 protocol was used at 48° C. 15 min, 95° C. 10 min, 10 cycles: 95° C. 15 sec, 60° C. 4 min, and 4° C. infinite Samples were then diluted to 50 μL and continued with the qPCR step. Per 10 μL reaction, the reaction mix included: 2 μL of Preamp dilution, 5 μL of Fast Advanced Taqman Master Mix (2×), 0.5 μL of Taqman probe set (20×), and 2.5 μL of H2O. When multiplexing, the volume was adjusted to 10 μL total. The following program was run on the QuantStudio7: 50° C. for 2 min, 95° C. for 30 sec, 40×, 95° C. for 5 sec, 60° C. for 30 sec, and plates were read as per the manufacturers specifications (Thermo).
(§3) Wild type myotubes and mature patient-derived FSHD myotubes that express DUX4 protein were treated with DMSO vehicle control or multiple concentrations of various p38α/β inhibitors with different ranges of isoform and kinome selectivity, including SB239063 (FIG. 4A), VX-702 (FIG. 4B), Pamapimod (FIG. 4C), and TAK-715 (FIG. 4D). After treatment, the control and treated cells were processed for realtime PCR quantification of MBD3L2 mRNA (DUX4 downstream gene) and myogenin (MYOG) mRNA (control) expression.

[3] = system: myogenin (MYOG) mRNA; experiment: MYOG mRNA expression (qPCR) in FSHD myotubes; conditions: multiple concentrations
Description: as §1, §2
For qPCR, cell lysate was diluted 1:10, and 2 μL was used for a 10 μL 1-step RT-qPCR reaction for detection of GAPDH, RPLPO, TBP, MYOG, FRG1, MYH3, ACTN2, etc. Per 10 μL reaction, the reaction mix included: 2 μL of RNA (1:10 dilution lysate), 5 μL of Fast Advanced Taqman Master Mix (2×), 0.25 μL of RT enzyme mix (40×), 0.5 μL of Taqman probe set (20×), and 2.25 μL of H2O. The following reaction protocol was run on the QuantStudio 7: 48° C. for 15 min, 50° C. for 2 min, 95° C. for 30 sec, 40×, 95° C. for 5 sec, 60° C. for 30 sec, after which the plates were read as specified by the manufacturer (Thermo).
as §3

[4] = system: DUX4-fl mRNA; experiment: DUX4 / DUX4-fl mRNA expression in FSHD myotubes
Description: cDNA preparation. 10 μL reactions included 1 μL of RNA (1 μg), 0.5 μL of Oligo dT, 0.5 μL of 10 mM dNTPs, and 4.5 μL of H2O. Reaction samples were incubated at 65° C. for 2 min and quickly moved to ice and held at least 1 min before adding the enzyme mix, which included 2 μL of 5× First strand Buffer, 0.5 μL of 0.1M DTT, 0.5 μL of RNAse inhibitor, 0.5 μL of SSIV RT. The samples were incubated at 55° C. for 20 min and 80° C. for 10 min, followed by cool down to 4° C. […]
DUX4 qPCR with nested primers was performed in a 10 μL reaction containing 1 μL of DUX4 pre amplification DNA, 5 μL of 2× IQ SYBR Mix, 0.4 μL of 10 μM TJ38F, 0.4 μL of 10 μM TJ41R, and 3.2 μL H2O. […] 10 seconds, then the plates were read on QuantStudio7 as per manufactures instruction (Thermo). […]
Wild type myotubes were treated with DMSO control vehicle, and mature patient-derived FSHD myotubes that express DUX4 protein were treated with DMSO vehicle control or 1 μM of a DUX4 sequence-directed antisense oligonucleotide (ASO; FTX-2) purchased from Exiqon. After treatment, the myotubes were lysed in 19.5 μL of Roche Real Time Ready Lysis Buffer, 0.25 μL of DNAse1 (Ambion, AM2222), 0.25 μL of Protector RNase Inhibitor (Roche, 3335402001), and the RNA was collected in an RNeasy Micro Kit Master Mix. […]

[5] = system: ZSCAN4, TRIM43, MBD3L2, LEUTX, and KHDC1L; experiment: DUX4-regulated downstream gene expression (real time PCR) in FSHD myotubes; conditions: 1 μM ASO
Description: Wild type myotubes were treated with DMSO control vehicle, and mature patient-derived FSHD myotubes that express DUX4 protein were treated with DMSO vehicle control or 1 μM of a DUX4 sequence-directed antisense oligonucleotide (ASO; FTX-2) purchased from Exiqon. After treatment, the myotubes were lysed in 19.5 μL of Roche Real Time Ready Lysis Buffer, 0.25 μL of DNAse1 (Ambion, AM2222), 0.25 μL of Protector RNase Inhibitor (Roche, 3335402001), and the RNA was collected in an RNeasy Micro Kit Master Mix. Expression levels of DUX4-regulated downstream genes (ZSCAN4, TRIM43, MBD3L2, LEUTX, and KHDC1L) was determined by real time PCR (ThermoFisher Scientific, 4484262), ZSCAN4 Taqman Assay (ThermoFisher Scientific, Hs00537549_m1, FAM-MGB), MYOG Taqman Assay (ThermoFisher Scientific, Hs01072232_m1, JUN-QSY), RPLPO Taqman Assay (ThermoFisher Scientific, Hs99999902_m1), and/or LEUTX Taqman Assay (ThermoFisher Scientific, Hs00418470_m1). Ct values were extracted from QuantStudio Realtime PCR software, and Genedata was used to calculate relative levels of expression using POLR2A as a housekeeping gene.

Q: How did the “apoptosis (active caspase-3) across FSHD1 and FSHD2 lines” value [1] turn out when `Cn1c(=O)c(Oc2ccc(F)cc2F)cc2cnc(NC(CCO)CCO)nc21` [FTX-839, Pamapimod] was run?
A: The value was “reduction”.

Q: What about the “MBD3L2 mRNA in FSHD1 and FSHD2 primary patient myoblast lines” value ([2]; 1 μM, to levels similar to healthy control lines) of the same molecule?
A: The value was “reduction”.

Q: And the “MBD3L2 mRNA levels normalized to POLR2A mRNA” value ([2]; FSHD myotubes, 10, 100, and 1000 nM vs DMSO)?
A: Its value is “dose-dependently reduced”.

Q: And the “MBD3L2 expression levels in four FSHD patient lines” value ([2]; FTCE-016, -020, -197, -196 myotubes, 1 μM, to levels similar to healthy controls)?
A: The value was “reduced”.

Q: What about the “impact to MYOG mRNA expression” value [3] of the same molecule?
A: Its value is “no impact”.

Q: `COc1nccc(-c2c(-c3ccc(F)cc3)ncn2C2CCC(O)CC2)n1` (stereo not drawn) [SB239063] was tested. Which “impact to MYOG mRNA expression” value [3] did it give?
A: The value was “no impact”.

Q: Which “impact to MYOG mRNA expression” value [3] does the source give for `CCc1nc(-c2cccc(C)c2)c(-c2ccnc(NC(=O)c3ccccc3)c2)s1` [TAK-715] here?
A: Its value is “no impact”.

Q: With `NC(=O)c1ccc(N(C(N)=O)c2c(F)cccc2F)nc1-c1ccc(F)cc1F` [VX-702] as the molecule, how does the “impact to MYOG mRNA expression” value [3] read?
A: The value was “no impact”.

Q: Which results are given for “FTX-2: DUX4 sequence-directed antisense oligonucleotide purchased from Exiqon, CAGCGTCGGAAGGTGG (SEQ ID NO:18) (listed as DNA, chemistry not given here)”?
A: DUX4 expression vs DMSO vehicle control ([4]; 1 μM ASO): reduced; DUX4 expression, different dilutions ([4]; different dilutions of the ASO): dose dependent reduction; MBD3L2 expression, different dilutions ([2]; FSHD myotubes, different dilutions of the ASO): dose dependent reduction; expression of DUX4 downstream target genes ZSCAN4, TRIM43, MBD3L2, LEUTX, and KHDC1L vs DMSO [5]: reduced
